# Species: Rattus norvegicus
# Assay: DrugMatrix - Regimen: Daily Repeat
# Assay type: toxicity, organism-based, Sprague-Dawley
# Set-up: regimen Daily Repeat, gender Male, age 6-8 weeks
# Settings: in vivo, po, route oral GAVAGE, vehicle 60 % PEG400; for URIC ACID / ALANINE AMINOTRANSFERASE / ALBUMIN / ALKALINE PHOSPHATASE / ASPARTATE AMINOTRANSFERASE / BLOOD UREA NITROGEN / CARBON DIOXIDE / CHLORIDE / CHOLESTEROL / CREATINE PHOSPHOKINASE / CREATININE / GLUCOSE / LACTATE DEHYDROGENASE / LIPASE / PHOSPHORUS / POTASSIUM / SODIUM / TOTAL BILIRUBIN / TOTAL PROTEIN: tissue Plasma; for ABSOLUTE BASOPHIL / ABSOLUTE EOSINOPHIL / ABSOLUTE LYMPHOCYTE / ABSOLUTE MONOCYTE / ABSOLUTE SEGMENTED NEUTROPHIL / BASOPHIL / EOSINOPHIL / ERYTHROCYTE COUNT / HEMATOCRIT / HEMOGLOBIN / LEUKOCYTE COUNT / LYMPHOCYTE / MEAN CORPUSCULAR HEMOGLOBIN / MEAN CORPUSCULAR HEMOGLOBIN CONCENTRATION / MEAN CORPUSCULAR VOLUME / MONOCYTE / NEUTROPHIL / NUCLEATED RED BLOOD CELLS / PLATELET COUNT: tissue Blood
# [1] = 0.001 mg/kg, 120 h, dose level Low, time 5 day
# [2] = 0.1 mg/kg, 72 h, dose level High, time 3 day
# [3] = 0.1 mg/kg, 120 h, dose level High, time 5 day
smiles,measurement,setting,value
N[C@@H](Cc1cc(I)c(Oc2ccc(O)c(I)c2)c(I)c1)C(=O)O [LIOTHYRONINE],URIC ACID,"0.001 mg/kg, 72 h, dose level Low, time 3 day",1.37 mg/dL
same,ABSOLUTE BASOPHIL,[1],0 CELLS/uL
same,ABSOLUTE EOSINOPHIL,[1],0 CELLS/uL
same,ABSOLUTE LYMPHOCYTE,[1],5590 CELLS/uL
same,ABSOLUTE MONOCYTE,[1],0 CELLS/uL
same,ABSOLUTE SEGMENTED NEUTROPHIL,[1],543.33 CELLS/uL
same,BASOPHIL,[1],0%
same,EOSINOPHIL,[1],0%
same,ERYTHROCYTE COUNT,[1],5.59 x10E6/uL
same,HEMATOCRIT,[1],33.3%
same,HEMOGLOBIN,[1],12.43 G/DL
same,LEUKOCYTE COUNT,[1],6.13 x10E3/uL
same,LYMPHOCYTE,[1],91%
same,MEAN CORPUSCULAR HEMOGLOBIN,[1],22.27 pg
same,MEAN CORPUSCULAR HEMOGLOBIN CONCENTRATION,[1],37.37 G/DL
same,MEAN CORPUSCULAR VOLUME,[1],59.57 fL
same,MONOCYTE,[1],0%
same,NEUTROPHIL,[1],9%
same,NUCLEATED RED BLOOD CELLS,[1],0.67 /100WBC
same,PLATELET COUNT,[1],972.33 x10E3/uL
same,ALANINE AMINOTRANSFERASE,[1],52.67 u/L
same,ALBUMIN,[1],4.57 G/DL
same,ALKALINE PHOSPHATASE,[1],421 u/L
same,ASPARTATE AMINOTRANSFERASE,[1],80.33 u/L
same,BLOOD UREA NITROGEN,[1],15.33 mg/dL
same,CARBON DIOXIDE,[1],31 mmol/L
same,CHLORIDE,[1],100.33 MEQ/L
same,CHOLESTEROL,[1],86 mg/dL
same,CREATINE PHOSPHOKINASE,[1],257.67 u/L
same,CREATININE,[1],0.19 mg/dL
same,GLUCOSE,[1],174.33 mg/dL
same,LACTATE DEHYDROGENASE,[1],98.33 u/L
same,LIPASE,[1],8.33 u/L
same,PHOSPHORUS,[1],12.67 mg/dL
same,POTASSIUM,[1],6.56 MEQ/L
same,SODIUM,[1],144.9 MEQ/L
same,TOTAL BILIRUBIN,[1],0.1 mg/dL
same,URIC ACID,[1],2.23 mg/dL
same,ABSOLUTE BASOPHIL,[2],0 CELLS/uL
same,ABSOLUTE EOSINOPHIL,[2],0 CELLS/uL
same,ABSOLUTE LYMPHOCYTE,[2],13461.67 CELLS/uL
same,ABSOLUTE MONOCYTE,[2],261.67 CELLS/uL
same,ABSOLUTE SEGMENTED NEUTROPHIL,[2],1443.33 CELLS/uL
same,BASOPHIL,[2],0%
same,EOSINOPHIL,[2],0%
same,ERYTHROCYTE COUNT,[2],6.02 x10E6/uL
same,HEMATOCRIT,[2],37%
same,HEMOGLOBIN,[2],14.37 G/DL
same,LEUKOCYTE COUNT,[2],15.17 x10E3/uL
same,LYMPHOCYTE,[2],89.33%
same,MEAN CORPUSCULAR HEMOGLOBIN,[2],23.9 pg
same,MEAN CORPUSCULAR HEMOGLOBIN CONCENTRATION,[2],38.8 G/DL
same,MEAN CORPUSCULAR VOLUME,[2],61.5 fL
same,MONOCYTE,[2],1.67%
same,NEUTROPHIL,[2],9%
same,NUCLEATED RED BLOOD CELLS,[2],0 /100WBC
same,PLATELET COUNT,[2],889 x10E3/uL
same,ALANINE AMINOTRANSFERASE,[2],70.67 u/L
same,ALBUMIN,[2],4.1 G/DL
same,ALKALINE PHOSPHATASE,[2],525 u/L
same,ASPARTATE AMINOTRANSFERASE,[2],112 u/L
same,BLOOD UREA NITROGEN,[2],14.67 mg/dL
same,CARBON DIOXIDE,[2],26.67 mmol/L
same,CHLORIDE,[2],104 MEQ/L
same,CHOLESTEROL,[2],88 mg/dL
same,CREATINE PHOSPHOKINASE,[2],402.67 u/L
same,CREATININE,[2],0.19 mg/dL
same,GLUCOSE,[2],148.67 mg/dL
same,LACTATE DEHYDROGENASE,[2],156.67 u/L
same,LIPASE,[2],14 u/L
same,PHOSPHORUS,[2],15.67 mg/dL
same,POTASSIUM,[2],7.38 MEQ/L
same,SODIUM,[2],147 MEQ/L
same,TOTAL BILIRUBIN,[2],0.13 mg/dL
same,TOTAL PROTEIN,[2],5.67 G/DL
same,URIC ACID,[2],2.47 mg/dL
same,ABSOLUTE BASOPHIL,[3],0 CELLS/uL
same,ABSOLUTE EOSINOPHIL,[3],0 CELLS/uL
same,ABSOLUTE LYMPHOCYTE,[3],3351.33 CELLS/uL
same,ABSOLUTE MONOCYTE,[3],14.67 CELLS/uL
same,ABSOLUTE SEGMENTED NEUTROPHIL,[3],800.67 CELLS/uL
same,BASOPHIL,[3],0%
same,EOSINOPHIL,[3],0%
same,ERYTHROCYTE COUNT,[3],5.59 x10E6/uL
same,HEMATOCRIT,[3],34.2%
same,HEMOGLOBIN,[3],12.77 G/DL
same,LEUKOCYTE COUNT,[3],4.17 x10E3/uL
same,LYMPHOCYTE,[3],80.33%
same,MEAN CORPUSCULAR HEMOGLOBIN,[3],22.83 pg
same,MEAN CORPUSCULAR HEMOGLOBIN CONCENTRATION,[3],37.33 G/DL
same,MEAN CORPUSCULAR VOLUME,[3],61.17 fL
same,MONOCYTE,[3],0.33%
same,NEUTROPHIL,[3],19.33%
same,NUCLEATED RED BLOOD CELLS,[3],0.33 /100WBC
same,PLATELET COUNT,[3],792.67 x10E3/uL
same,ALANINE AMINOTRANSFERASE,[3],69.67 u/L
same,ALBUMIN,[3],4.13 G/DL
same,ALKALINE PHOSPHATASE,[3],576 u/L
same,ASPARTATE AMINOTRANSFERASE,[3],110 u/L
same,BLOOD UREA NITROGEN,[3],12.67 mg/dL
same,CARBON DIOXIDE,[3],32.67 mmol/L
same,CHLORIDE,[3],103.33 MEQ/L
same,CHOLESTEROL,[3],94.67 mg/dL
same,CREATINE PHOSPHOKINASE,[3],218 u/L
same,CREATININE,[3],0.12 mg/dL
same,GLUCOSE,[3],132.67 mg/dL
same,LACTATE DEHYDROGENASE,[3],105.33 u/L
same,LIPASE,[3],12.33 u/L
same,PHOSPHORUS,[3],13.73 mg/dL
same,POTASSIUM,[3],7.47 MEQ/L
same,SODIUM,[3],149.43 MEQ/L
same,TOTAL BILIRUBIN,[3],0.13 mg/dL
same,TOTAL PROTEIN,[3],5.8 G/DL
same,URIC ACID,[3],2.43 mg/dL
